Experimental data as given in US5985908A, “MCBI analogs of CC-1065 and the duocarmycins” (The Scripps Research Institute, priority 1998, dated 1999).
“Also recorded” adds a separate entry of the source.

Tests used:
[1] = system: w794 DNA (SV40 DNA fragment, 144 bp); experiment: DNA alkylation, thermally-induced strand cleavage of w794 DNA; format: biochemical; details: for selectivity and efficiency of DNA alkylation, unnatural enantiomers compared: 72 hours, pairwise comparison; for concentration of detectable DNA alkylation, unnatural enantiomers: w794, 37° C., 72 hours (FIG. 13); for selectivity and efficiency of DNA alkylation, natural enantiomers compared: 25° C., 24 hours, 254 vs 2, 266 vs 1; for concentration of detectable DNA alkylation, natural enantiomers: w794, 25° C., 24 hours (FIG. 17)
Procedure: FIG. 13 illustrates thermally-induced strand cleavage of double-stranded DNA (SV40 DNA fragment, 144 bp, nucleotide no. 5238-138, clone w794) after 72 hours incubation of agent-DNA at 37° C. followed by removal of unbound agent and 30 minutes incubation at 100° C.; 8% denaturing PAGE and autoradiography. Lane 1, control DNA; lanes 2-4, (-)-MCBI-TMI (254, 1×10^-5 to 1×10^-7 M); lanes 5-7, (-)-duocarmycin SA (2, 1×10^-5 to 1×10^-7 M); lanes 8-11, Sanger G, C, A and T reactions; lanes 12-14, (-)-CC-1065 (1, 1×10^-5 to 1×10^-7 M); lanes 15-17, (-)-MCBI-CDPI2 (266, 1×10^-5 to 1×10^-7 M); lanes 18-20, (-)-MCBI-CDPI1 (262, 1×10^-5 to 1×10^-7 M); lanes 21-23 (-)-MCBI-indole2 (258, 1×10^-5 to 1×10^-7 M).
As indicated, the DNA-agent incubation was conducted at 37° C. for 24 or 48 hours, followed by removal of unbound agent and 30 minutes incubation at 100° C.; 8% denaturing PAGE and autoradiography.
FIG. 17 illustrates thermally-induced strand cleavage of double-stranded DNA (SV40 DNA fragment, 144 bp, nucleotide no. 5238-138, clone w794) after 24 hours incubation of agent-DNA at 25° C. followed by removal of unbound agent and 30 minutes incubation at 100° C; 8% denaturing PAGE and autoradiography. Lane 1, control DNA; lanes 2-4, (+)-duocarmycin SA (2, 1×10^-5 to 1×10^-7 M); lanes 5-7, (+)-MCBI-TMI (254, 1×10^-5 to 1×10^-7 M); lanes 8-11, Sanger G, C, A and T reactions; lanes 12-14, (+)-CC-1065 (1, 1×10^-5 to 1×10^-7 M); lanes 15-17, (+)-MCBI-indole2 (258, 1×10^-5 to 1×10^-7 M); lanes 18-20, (+)-MCBI-CDPI2 (266, 1×10^-5 to 1×10^-7 M).
(§1) The DNA alkylation properties of the agents were examined within four 150 base-pair segments of duplex DNA for which comparative results are available for related agents. Four clones of phage M13mp10 were selected for study and contain the SV40 nucleosomal DNA inserts w794 (nucleotide no. 5238-138) and its complement w836 (nucleotide no. 5189-91) and c988 (nucleotide no. 4359-4210) and its complement c820 (nucleotide no. 4201-4356). The alkylation site identification and the assessment of the relative selectivity among the available sites were obtained by thermally-induced strand cleavage of the singly 5'end-labeled duplex DNA after exposure to the agents. Following treatment of the end-labeled duplex DNA with a range of agent concentrations, the unbound agent was removed by EtOH precipitation of the DNA. Redissolution of the DNA in aqueous buffer, thermolysis (100° C., 30 minutes) to induce strand cleavage at the sites of DNA alkylation, denaturing high resolution polyacrylamide gel electrophoresis (PAGE) adjacent to Sanger dideoxynucleotide sequencing standards, and autoradiography led to identification of the DNA cleavage and alkylation sites. The full details of this procedure have been disclosed and discussed elsewhere (10). The DNA alkylation reaction selectivities observed under the incubation conditions of 25° C. (24 hours) for the agents detailed herein have proven identical to the alkylation selectivities observed with shorter or extended reaction periods or when the reactions were conducted at different temperatures (37 or 4° C., 0.5-7 days). As discussed below, the rates and efficiencies but not final relative efficiencies of DNA alkylation were altered by changing the reaction temperatures.

L1210 = experiment: In vitro cytotoxic activity; format: cell-based; details: for cytotoxic activity of seco precursor vs cyclopropane containing agent: seco precursors; for cytotoxic potency of natural enantiomer relative to unnatural enantiomer: fold, natural more potent than unnatural; for enantiomer distinction (in words): natural vs unnatural enantiomer
[2] = pH 3; cited from earlier work
[3] = Solvolysis reactivity (UV), aqueous buffer-CH3OH; format: physicochemical
Procedure: The solvolysis was followed spectrophotometrically by UV with the disappearance of the long-wavelength absorption band of the MCBI chromophore ([…]) and with the appearance of a short-wavelength absorption band (266 nm) attributable to seco-N-BOC-MCBI (FIG. 9).
N-BOC-MCBI (238, 0.1 mg) was dissolved in CH3 OH (1.5 mL) and mixed with pH 3 aqueous buffer (1.5 mL). The buffer contained 4:1:20 (v:v:v) 0.1 M citric acid, 0.2 M Na2 HPO4, and H2 O, respectively. The solvolysis solution was sealed and kept at 25° C. protected from light. The UV spectrum was measured at regular intervals every 2 hours during the first day, every 12 hours for another week, and every 24 hours for an additional week. The decrease in the long-wavelength absorption at 324 nm and the increase in the short-wavelength absorption at 266 nm were monitored, FIG. 1.
Similarly, MCBI (240, 0.1 mg) was dissolved in CH3 OH (1.5 mL) and mixed with […] (1.5 mL). The solvolysis solution was sealed and stirred at 25° C. in the dark. The UV spectrum was recorded every 24 hours for two months. The decrease in the long-wavelength absorption at 340 nm and the increase in absorption at 268 nm were monitored, FIG. 1.

[4] = system: duplex DNA (w794, w836, c988, c820); experiment: DNA alkylation selectivity within four 150 base-pair segments of duplex DNA; format: biochemical, SV40
From the text: as §1

COc1ccc2c(c1)[C@]13C[C@H]1CN(C(=O)c1cc4cc(NC(=O)c5cc6ccccc6[nH]5)ccc4[nH]1)C3=CC2=O [(-)-MCBI-indole2]
selectivity and efficiency of DNA alkylation, unnatural enantiomers compared ([1]; 37° C.): nearly indistinguishable

COc1ccc2c(O)cc3c(c2c1)C(CCl)CN3C(=O)c1cc2cc(NC(=O)c3cc4ccccc4[nH]3)ccc2[nH]1 (stereo not shown) [Compound 256]
cytotoxic activity of seco precursor vs cyclopropane containing agent (L1210): indistinguishable

COC(=O)c1cc2c([nH]1)C(=O)C=C1N(C(=O)c3cc4cc(OC)c(OC)c(OC)c4[nH]3)CC3CC123 (single isomer, unassigned) [ent-(-)-duocarmycin SA, reference compound]
selectivity and efficiency of DNA alkylation, unnatural enantiomers compared ([1]; 37° C.): slightly more effective

COc1ccc2c(c1)[C@]13C[C@H]1CN(C(=O)c1cc4c5c(ccc4[nH]1)N(C(=O)c1cc4c6c(ccc4[nH]1)N(C(N)=O)CC6)CC5)C3=CC2=O [(-)-MCBI-CDPI2]
selectivity and efficiency of DNA alkylation, unnatural enantiomers compared ([1]; 37° C.): nearly indistinguishable

O=C1C=C2NCC3CC23c2ccccc21 (stereo not shown) [CBI, 1,2,9,9a-tetrahydrocyclopropa[c]benz[e]indol-4-one]
solvolysis half-life t1/2 of comparison agents [2]: 38.8 days | solvolysis rate constant k of comparison agents [2]: 2.07e-07 s⁻¹

COc1ccc2c(c1)[C@]13C[C@H]1CN(C(=O)c1cc4cc(OC)c(OC)c(OC)c4[nH]1)C3=CC2=O [(-)-MCBI-TMI]
selectivity and efficiency of DNA alkylation, unnatural enantiomers compared ([1]; 37° C.): nearly indistinguishable

CC(C)(C)OC(=O)N1CC2CC23C1=CC(=O)c1ccccc13 (stereo not shown) [N-BOC-CBI]
solvolysis half-life t1/2 of comparison agents [2]: 5.54 days

COc1ccc2c(c1)C13CC1CNC3=CC2=O (stereo not shown) [Compound 240, 7-Methoxy-1,2,9,9a-tetrahydrocyclopropa[c]benz[e]indol-4-one]
acceleration of rate of solvolysis by C7 methoxy group vs. corresponding CBI agent ([3]; acid-catalyzed solvolysis, pH 3): 1.6 × | solvolysis rate constant k ([3]; pH 3, 50% CH3OH-buffer, 25° C.): 5.76e-07 s⁻¹ | half-life ([3]; pH 3, 50% CH3OH-buffer, 25° C., read-out: solvolysis half-life t1/2 (converted)): 13.9 days | solvolysis reactivity relative to DSA ([3]; pH 3, more reactive than DSA): 6-7 × | relative solvolysis reactivity (in words) ([3]; pH 3, vs. agent named): only slightly more reactive than CBI; also recorded: less reactive than CPI

COc1ccc2c(c1)C13CC1CN(C(=O)c1cc4c5c(ccc4[nH]1)N(C(=O)c1cc4c6c(ccc4[nH]1)N(C(N)=O)CC6)CC5)C3=CC2=O (stereo not shown) [Compound 266]
cytotoxic potency of natural enantiomer relative to unnatural enantiomer (L1210): 1-3 × | enantiomer distinction (in words) (L1210): essentially indistinguishable | enantiomer distinction (in words) (L1210; listed as MCBI-CDPI2): nearly equipotent | concentration of detectable DNA alkylation, unnatural enantiomers [1]: 10^-6 to 10^-7 M

COc1ccc2c(O)cc3c(c2c1)C(CCl)CN3C(=O)OC(C)(C)C (stereo not shown) [Compound 236, 3-(tert-Butyloxycarbonyl)-1-(chloromethyl)-5-hydroxy-8-methoxy-1,2-dihydro-3H-benz[e]indole]
cytotoxic activity of seco precursor vs cyclopropane containing agent (L1210): indistinguishable

COc1c(O)c2c(c3cc(C(=O)N4CCc5c4c(O)c(OC)c4[nH]c(C(=O)N6CC7CC78C6=CC(=O)c6[nH]cc(C)c68)cc54)[nH]c13)CCN2C(N)=O (stereo not drawn) [ent-(-)-CC-1065, reference compound]
selectivity and efficiency of DNA alkylation, unnatural enantiomers compared ([1]; 37° C.): nearly indistinguishable

Cc1c[nH]c2c1C13CC1CN(C(=O)OC(C)(C)C)C3=CC2=O (stereo not shown) [N-BOC-CPI]
solvolysis half-life t1/2 of comparison agents [2]: 1.53 days

NC(=O)N1CCc2c1ccc1[nH]c(C(=O)N3CCc4c3ccc3[nH]c(C(=O)N5CC6CC67C5=CC(=O)c5ccccc57)cc43)cc21 (stereo not shown) [CBI-CDPI2, reference compound]
enantiomer distinction (in words) (L1210): comparable potencies

COc1ccc2c(c1)[C@]13C[C@H]1CN(C(=O)c1cc4c5c(ccc4[nH]1)N(C(N)=O)CC5)C3=CC2=O [(-)-MCBI-CDPI1]
selectivity and efficiency of DNA alkylation, unnatural enantiomers compared ([1]; 37° C.): nearly indistinguishable

COc1ccc2c(c1)C13CC1CN(C(=O)c1cc4c5c(ccc4[nH]1)N(C(N)=O)CC5)C3=CC2=O (stereo not shown) [Compound 262]
cytotoxic potency of natural enantiomer relative to unnatural enantiomer (L1210): 1-3 × | enantiomer distinction (in words) (L1210): essentially indistinguishable | enantiomer distinction (in words) (L1210; listed as MCBI-CDPI1): nearly equipotent | AT-rich alkylation selectivity, size of site, natural enantiomers [4]: 3.5 base-pair

COc1c(O)c2c(c3cc(C(=O)N4CCc5c4c(O)c(OC)c4[nH]c(C(=O)N6C[C@H]7C[C@@]78C6=CC(=O)c6[nH]cc(C)c68)cc54)[nH]c13)CCN2C(N)=O [(+)-CC-1065, reference compound]
selectivity and efficiency of DNA alkylation, natural enantiomers compared [1]: essentially indistinguishable | concentration of detectable DNA alkylation, natural enantiomers [1]: 10^-7 M | AT-rich alkylation selectivity, size of site, natural enantiomers [4]: 5 base-pair

COc1ccc2c(O)cc3c(c2c1)C(CCl)CN3C(=O)c1cc2c3c(ccc2[nH]1)N(C(N)=O)CC3 (stereo not shown) [Compound 260]
cytotoxic activity of seco precursor vs cyclopropane containing agent (L1210): indistinguishable

COc1ccc2c(c1)[C@@]13C[C@@H]1CN(C(=O)c1cc4c5c(ccc4[nH]1)N(C(=O)c1cc4c6c(ccc4[nH]1)N(C(N)=O)CC6)CC5)C3=CC2=O [(+)-MCBI-CDPI2]
selectivity and efficiency of DNA alkylation, natural enantiomers compared [1]: essentially indistinguishable | concentration of detectable DNA alkylation, natural enantiomers [1]: 10^-7 M

COc1ccc2c(c1)[C@@]13C[C@@H]1CN(C(=O)OC(C)(C)C)C3=CC2=O [(+)-N-BOC-MCBI, N-(tert-Butyloxycarbonyl)-7-methoxy-1,2,9,9a-tetrahydrocyclopropa[c]benz[e]indol-4-one]
enantiomer distinction (in words) (L1210): more potent activity | relative efficiency of DNA alkylation, natural/unnatural enantiomer ([1]; (+)-N-BOC-MCBI/ent-(-)-N-BOC-MCBI, 37° C.): 1-2 ×

COc1ccc2c(O)cc3c(c2c1)C(CCl)CN3C(=O)c1cc2cc(OC)c(OC)c(OC)c2[nH]1 (stereo not shown) [Compound 252]
cytotoxic activity of seco precursor vs cyclopropane containing agent (L1210): indistinguishable

COc1ccc2c(c1)C13CC1CN(C(=O)c1cc4cc(NC(=O)c5cc6ccccc6[nH]5)ccc4[nH]1)C3=CC2=O (stereo not shown) [Compound 258]
cytotoxic potency of natural enantiomer relative to unnatural enantiomer (L1210): 1-3 × | enantiomer distinction (in words) (L1210): nearly equipotent | concentration of detectable DNA alkylation, unnatural enantiomers [1]: 10^-6 to 10^-7 M

COc1ccc2c(O)cc3c(c2c1)C(CCl)CN3C(=O)c1cc2c3c(ccc2[nH]1)N(C(=O)c1cc2c4c(ccc2[nH]1)N(C(N)=O)CC4)CC3 (stereo not shown) [Compound 264]
cytotoxic activity of seco precursor vs cyclopropane containing agent (L1210): indistinguishable

COc1ccc2c(c1)[C@@]13C[C@@H]1CN(C(=O)c1cc4cc(NC(=O)c5cc6ccccc6[nH]5)ccc4[nH]1)C3=CC2=O [(+)-MCBI-indole2]
concentration of detectable DNA alkylation, natural enantiomers [1]: 10^-7 M
